pIC50: −log10 of the molar value.
Legend:
[1] = test system: CYP2A6; design: method as in earlier work; settings: FDA Orange Books ref 65, 66; cited from earlier work
[2] = test system: CYP2E1; design: method as in earlier work; settings: FDA Orange Books ref 65, 66; cited from earlier work
[3] = test system: CYP1A2; design: method as in earlier work; settings: FDA Orange Books ref 65, 66; cited from earlier work
[4] = target: T1, ERα (Homo sapiens, UniProt P03372); settings: MST
T1 sequence (P03372 1-595): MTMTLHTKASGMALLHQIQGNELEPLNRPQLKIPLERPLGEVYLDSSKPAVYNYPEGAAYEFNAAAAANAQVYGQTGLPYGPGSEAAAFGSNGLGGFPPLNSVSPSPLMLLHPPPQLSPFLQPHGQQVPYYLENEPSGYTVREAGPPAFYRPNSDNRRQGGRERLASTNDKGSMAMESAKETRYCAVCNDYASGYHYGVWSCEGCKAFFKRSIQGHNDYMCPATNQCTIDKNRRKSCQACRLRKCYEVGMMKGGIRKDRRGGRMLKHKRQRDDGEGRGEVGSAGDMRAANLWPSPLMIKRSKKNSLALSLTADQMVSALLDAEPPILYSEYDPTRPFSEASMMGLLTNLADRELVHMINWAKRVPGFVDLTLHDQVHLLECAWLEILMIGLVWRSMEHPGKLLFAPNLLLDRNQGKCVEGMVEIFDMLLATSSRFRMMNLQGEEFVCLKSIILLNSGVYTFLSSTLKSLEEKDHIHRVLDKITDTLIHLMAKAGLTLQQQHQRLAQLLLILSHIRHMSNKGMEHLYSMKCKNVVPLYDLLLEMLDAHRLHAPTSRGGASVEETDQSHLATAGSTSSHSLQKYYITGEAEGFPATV

Cc1nc(Nc2ncc(C(=O)Nc3c(C)cccc3Cl)s2)cc(N2CCN(CCO)CC2)n1 [Dasatinib, dasatinib]
pIC50 [1]: 4.46 | pIC50 [2]: < 4.30

Cc1ccc(Nc2nccc(N(C)c3ccc4c(C)n(C)nc4c3)n2)cc1S(N)(=O)=O [Pazopanib, pazopanib]
pIC50 [3]: 4.80

CNC(=O)c1cc(Oc2ccc(NC(=O)Nc3ccc(Cl)c(C(F)(F)F)c3)cc2)ccn1 [Sorafenib, sorafenib]
interaction with ERα at detectable levels [4]: did not interact
